According to PMC12503906, “Novel Pyrazolo [1,5‐a]−1,3,5‐Triazine Derivatives as CDK7 Inhibitors: Synthesis and Biological Insights in Pancreatic Ductal Adenocarcinoma Models” (Chemmedchem, 2025):
Like-named read-outs stand apart in the source and are kept apart here.

Legend:
PATU‐T [1] = assay: SRB chemosensitivity assay, PATU‐T cells; format: cell-based; conditions: read-out: IC50 PATU‐T
Protocol: (§1) Three lines of immortalized PDAC cells were selected as representative phenotypes: mesenchymal (PATU‐T), quasimesenchymal (PANC‐1), and an epithelial clone of SUIT 2 cells (SUIT 2.28). Cells were cultured in noncoated T‐75 and T‐25 flasks under adherent conditions, using 1× DMEM (Gibco, 41,966,029) for PATU‐T and RPMI (Gibco, 21,875,034) for SUIT 2.28 and PANC‐1, both supplemented with 10% NBCS and 1% P/S. Additional employed models were the PDAC3 cells, a primary cell culture, the PSCs, which were immortalized healthy pancreatic cells, and the PATU‐T‐GR, which was a gemcitabine resistant model of PATU‐T. PDAC3 and PSCs were cultivated using complete RPMI medium, while PATU‐T‐GR required complete DMEM medium. For seeding, cells were detached with Trypsin‐EDTA (0.05%) (GibcoTM, 25,300–096) and were consequently counted using the Automated Cell Counter (Luna‐II, Westburg). Cells were then plated on 96‐ or 6‐well plates depending on the planned experiment.
(§2) The Sulforhodamine B (SRB) chemosensitivity assay was used to measure cytotoxicity and cell proliferation post drug treatment. At day 0, 3–6 × 10^3 cells were seeded in a 96‐well plate, depending on the cell line. At day 1, cells were attached and ready to be treated. For the calculation of the IC50, drug dilutions for the compounds 1b, 1c, 1d, 1e, 1g, 1hr, 1i, 1j, and LDC4297 (MedChemExpress, HY‐12,653) were prepared in dilution trays and eight different concentrations were included. These were added in triplicates to the cells, which were then incubated for […] at 37 °C in 5% CO2. During day 1, the control plate was fixed with 50% Trichloroacetic acid (TCA), as intended to be the baseline plate used for the normalization of the data. 72 h post‐treatment, the cells were fixed with TCA, and placed at 4 °C for about 2 h. The plates were then washed with distillated water and left to dry under the hood with ventilation. Subsequently, plates were stained with 0.4% SRB for 15 min and washed with 1% acetic acid to remove excess stain. Once dried again, the protein‐bound SRB was dissolved in 10 mM TRIS, and the plates were placed on a shaker for 10 min per plate. Lastly, the absorbance was measured at 492 nm with a spectrophotometer (Synergy HT, BioTek). The absorbance data obtained were normalized to the day 1 control, and the percentage of cell growth in relation to the control was calculated using the following formula. (1) %Cell growth=Mean OD treatment−Mean OD day0/Mean OD control−Mean OD day0×100
(§3) The percentage of proliferation and their respective standard deviations were used to perform statistical analysis in GraphPad Prism software v 10 (GraphPad Software, San Diego, CA). Data were normalized to the day 0 control and to their own untreated 72 h control. These were transformed into logarithmic data, and log(inhibitor) versus response analysis was performed for obtaining the IC50 values per cell lines. Each experiment was conducted in triplicates.

PANC‐1 = assay: SRB chemosensitivity assay, PANC‐1 cells; format: cell-based; conditions: Homo sapiens, read-out: IC50 PANC‐1
Protocol: as §1, §2, §3

SUIT 2.28 = assay: SRB chemosensitivity assay, SUIT 2.28 cells; format: cell-based; conditions: read-out: IC50 SUIT 2.28
Protocol: as §1, §2, §3

PDAC3 = assay: SRB chemosensitivity assay, primary PDAC3 cells; format: cell-based; conditions: PDAC-3, SRB, primary cell line, average ± SEM, triplicate; read-out: IC50 PDAC3
Protocol: as §1, §2, §3

PATU‐T GR = assay: SRB chemosensitivity assay, gemcitabine resistant PATU‐T GR cells; format: cell-based; conditions: SRB, gemcitabine resistant PATU‐T GR, average ± SEM, triplicate; read-out: IC50 PATU‐GR
Protocol: as §1, §2
The percentage of proliferation and their respective standard deviations were used to perform statistical analysis in GraphPad Prism software v 10 (GraphPad Software, San Diego, CA). Data were normalized to the day 0 control and to their own untreated 72 h control. […]

PSC = assay: SRB chemosensitivity assay, pancreatic stellate cells (PSC); format: cell-based; conditions: Fibroblast; SRB, nontumorous immortalized pancreatic fibroblasts, average ± SEM, triplicate; read-out: IC50 PSC
Protocol: as §1
as §2, with “The plates were then washed with distillated water and left to dry under the hood with ventilation. Subsequently, plates were stained with 0.4% SRB for 15 min and washed with 1% acetic acid to remove excess stain. Once dried again, the protein‐bound SRB was dissolved in 10 mM TRIS, and the plates were placed on a shaker for 10 min per plate.” left out, “(1) %Cell growth=Mean OD treatment−Mean OD day0/Mean OD control−Mean OD day0×100” left out

PDAC cell lines = assay: SRB chemosensitivity assay, ranges over several PDAC cell lines; format: cell-based; conditions: range across the different cell lines
Protocol: as §1, with “Cells were then plated on 96‐ or 6‐well plates depending on the planned experiment.” left out
The Sulforhodamine B (SRB) chemosensitivity assay was used to measure cytotoxicity and cell proliferation post drug treatment. […] At day 1, cells were attached and ready to be treated. […] Lastly, the absorbance was measured at 492 nm with a spectrophotometer (Synergy HT, BioTek). The absorbance data obtained were normalized to the day 1 control, and the percentage of cell growth in relation to the control was calculated using the following formula. […]

CDK7 [2] = conditions: selective inhibition of CDK7, quoted in introduction; cited from earlier work
CDK7 [3] = target: CDK7 (Homo sapiens, UniProt P50613); assay: In vitro CDK7 enzyme inhibition assay (ADP‐Glo); format: biochemical; parameters: purchased Promega Corporation VA7402; conditions: ADP‐Glo assay, mean of triplicate experiments; read-out: CDK7 inhibition activity IC50
Protocol: The CDK7 enzyme inhibition assay was conducted using the ADP‐Glo Kinase Assay (VA7402, Promega Corporation, Madison, WI, USA) according to the manufacturer's instructions. In this assay, CDK7 catalyzes the conversion of ATP to ADP. The reaction was terminated by adding the ADP‐Glo reagent, which depletes residual ATP. Subsequently, the kinase detection reagent was introduced to convert ADP back into ATP, which was then measured via a luciferase reaction, producing luminescence. The assay was carried out at room temperature, using DMSO as the solvent for the tested compounds. Each compound was tested at eight different concentrations. […] Luminescence was recorded using a BioTek plate reader (BioTek Instruments Inc.), as previously described.^[ [39] ^] The percentage of enzyme inhibition was determined for each compound at different concentrations, and mean IC50 values of triplicate experiments were calculated using GraphPad Prism.

[4] = target: T1, phosphorylated CDK7 (p‐CDK7) (Homo sapiens, UniProt P50613); assay: Phospho‐CDK7 (Thr170) cell‐based ELISA, PDAC3; parameters: endogenous in cells; host or cells: PDAC3 primary cells; conditions: PDAC3, 4 × IC50, ELISA
Protocol: (§4) To detect CDK7 and phospho‐CDK7 levels at Thr170 residue after treatment, an enzyme‐linked immunosorbent assay (Biomatik, Phospho‐CDK7 (Thr170) Colorimetric Cell‐Based ELISA Kit, Cat# EKA51274) was performed according to the manufacturer's protocols. […] The absorbance was read at 450 nm using a microplate reader.

[5] = target: T1, phosphorylated CDK7 (p‐CDK7); assay: Phospho‐CDK7 (Thr170) cell‐based ELISA, SUIT 2.28; parameters: two PDAC preclinical models (SUIT 2.28 and PDAC3); endogenous in cells; host or cells: SUIT 2.28; conditions: SUIT 2.28, 4 × IC50, ELISA
Protocol: as §4

PATU‐T [6] = assay: Wound healing assay, PATU‐T; format: cell-based; conditions: 1 × IC50 and 4 × IC50, 4 to 24 h
Protocol: The wound healing assay was used to test the migratory ability of the selected cells post‐treatment. Cells (5 × 10^4 /well) were seeded on 96‐well. After 24 h, cells reached the optimal 100% confluency, and an artificial wound was created with a 96‐well Pintool Scratcher. The cells were immediately washed with complete medium, in order to remove cell debris after the scratch, and images of the wells were captured at time 0 h, right before the addition of the treatment. Each drug (1b and 1g) was previously diluted in the respective medium at two different concentrations: 1 × IC50 and 4 × IC50 (according to the cell specific IC50 value) and were then added to the cells. Images were then taken at timepoints 4, 8, 20, and 24 h using the Leica microscope with a JAI TMC‐137 camera to assess wound closure. The images were analyzed using the Universal Grab 6.3 software (DCILabs), and the obtained data were used to determine the percentage of migration of the cells, using the following formula. (2) % Migration=Mean width of the wound atT=0−Mean width of the wound atT=X/Mean width of the wound atT=0×100

[7] = SRB, 72 h of treatment, average ± SEM, triplicate
[8] = PANC-1, SRB, 72 h of treatment, average ± SEM, triplicate

T1 sequence (P50613 2-346 limits assumed): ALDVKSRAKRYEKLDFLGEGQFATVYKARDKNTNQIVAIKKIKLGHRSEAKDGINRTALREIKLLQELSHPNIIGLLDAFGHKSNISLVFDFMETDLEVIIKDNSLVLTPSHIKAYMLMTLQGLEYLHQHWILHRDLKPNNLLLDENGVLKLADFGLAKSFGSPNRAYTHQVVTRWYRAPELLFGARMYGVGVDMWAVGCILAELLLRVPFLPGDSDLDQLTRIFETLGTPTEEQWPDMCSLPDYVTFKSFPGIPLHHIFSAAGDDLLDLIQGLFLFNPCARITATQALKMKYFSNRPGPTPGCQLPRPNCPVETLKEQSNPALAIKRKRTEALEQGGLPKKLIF
T1 sequence (P51946 whole entry partner): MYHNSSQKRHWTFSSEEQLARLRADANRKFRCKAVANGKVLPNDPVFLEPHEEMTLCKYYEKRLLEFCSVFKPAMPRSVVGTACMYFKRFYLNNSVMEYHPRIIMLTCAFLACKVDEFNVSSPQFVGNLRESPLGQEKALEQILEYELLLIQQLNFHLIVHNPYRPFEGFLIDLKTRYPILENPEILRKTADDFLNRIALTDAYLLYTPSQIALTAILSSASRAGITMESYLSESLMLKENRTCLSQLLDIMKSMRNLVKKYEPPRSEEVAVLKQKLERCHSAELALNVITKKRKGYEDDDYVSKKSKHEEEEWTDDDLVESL
T1 sequence (P51948 whole entry partner): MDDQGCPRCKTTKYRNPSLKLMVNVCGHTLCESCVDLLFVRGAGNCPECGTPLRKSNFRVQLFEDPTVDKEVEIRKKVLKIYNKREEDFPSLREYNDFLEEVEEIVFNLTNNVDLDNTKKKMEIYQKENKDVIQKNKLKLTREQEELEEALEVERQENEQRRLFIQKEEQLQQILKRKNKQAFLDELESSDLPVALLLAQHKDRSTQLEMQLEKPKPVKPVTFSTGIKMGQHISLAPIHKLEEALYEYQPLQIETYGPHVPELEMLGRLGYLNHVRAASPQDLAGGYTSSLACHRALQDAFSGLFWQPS
CDK7 (Homo sapiens, UniProt P50613), sequence (P50613 whole entry): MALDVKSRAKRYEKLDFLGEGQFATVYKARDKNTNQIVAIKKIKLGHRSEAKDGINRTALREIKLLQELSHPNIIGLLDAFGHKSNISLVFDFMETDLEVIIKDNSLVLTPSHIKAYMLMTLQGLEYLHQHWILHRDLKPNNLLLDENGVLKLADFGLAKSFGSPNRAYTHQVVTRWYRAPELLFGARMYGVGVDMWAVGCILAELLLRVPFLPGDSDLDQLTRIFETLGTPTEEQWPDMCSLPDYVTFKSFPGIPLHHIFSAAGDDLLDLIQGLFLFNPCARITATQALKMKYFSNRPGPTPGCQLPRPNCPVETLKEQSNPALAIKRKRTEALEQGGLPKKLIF
CDK7 (Homo sapiens, UniProt P50613), sequence (P51946 whole entry partner): as the sequence (P51946 whole entry partner) above
CDK7 (Homo sapiens, UniProt P50613), sequence (P51948 whole entry partner): as the sequence (P51948 whole entry partner) above

SMILES	IC50 (PATU‐T [1]; 72 h) [nM]	IC50 (PANC‐1; PANC-1, 72 h) [nM]	IC50 (SUIT 2.28; 72 h) [nM]	IC50 (PATU‐T [1]; [7]) [nM]	IC50 (PANC‐1; [8]) [nM]	IC50 (SUIT 2.28; [7]) [nM]	further results
Cn1cc(-c2cc3ncnc(N)n3n2)c2cc(F)ccc21 [Compound 1i, 7‐(5‐Fluoro‐1‐methyl‐1H‐indol‐3‐yl)pyrazolo[1,5‐a][1,3,5]triazin‐4‐amine]	5500 ± 1100	2200 ± 400	500 ± 100				
Cn1cc(-c2cc3ncnc(N)n3n2)c2cc(Cl)ccc21 [Compound 1h, 7‐(5‐Chloro‐1‐methyl‐1H‐indol‐3‐yl)pyrazolo[1,5‐a][1,3,5]triazin‐4‐amine]	2000 ± 300	3100 ± 700	1600 ± 300				
COc1ccc2c(c1)c(-c1cc3ncnc(N)n3n1)cn2C [Compound 1j, 7‐(5‐Methoxy‐1‐methyl‐1H‐indol‐3‐yl)pyrazolo[1,5‐a][1,3,5]triazin‐4‐amine]	4700 ± 800	2400 ± 500	500 ± 100				
CC(C)c1cnn2c(NCc3ccccc3-n3cccn3)nc(OC3CCCNC3)nc12 (stereo not shown) [LDC4297, reference compound]				30 ± 10	20 ± 10	30 ± 10	IC50 (PDAC3): 100 ± 20 nM; IC50 (PATU‐T GR): 450 ± 90 nM; IC50 (PSC): 110 ± 20 nM; IC50 (PDAC cell lines): 20 to 400 nM; IC50 (CDK7 [2]): < 5 nM; IC50 (CDK7 [3]): 7.5 nM; p‐CDK7 expression vs untreated [4]: significant decrease in p‐CDK7 levels; p‐CDK7 expression vs untreated [5]: significant decrease in p‐CDK7 levels
Nc1ncnc2cc(-c3c[nH]c4ccc(F)cc34)nn12 [Compound 1d, 7‐(5‐Fluoro‐1H‐indol‐3‐yl)pyrazolo[1,5‐a][1,3,5]triazin‐4‐amine]				3500 ± 700	9600 ± 800	600 ± 100	
COc1ccc2[nH]cc(-c3cc4ncnc(N)n4n3)c2c1 [Compound 1e, 7‐(5‐Methoxy‐1H‐indol‐3‐yl)pyrazolo[1,5‐a][1,3,5]triazin‐4‐amine]				4700 ± 900	8800 ± 1200	500 ± 100	inhibition of cell migration (PATU‐T [6]): greatest inhibitory effect
Nc1ncnc2cc(-c3c[nH]c4ccc(Cl)cc34)nn12 [Compound 1c, 7‐(5‐Chloro‐1H‐indol‐3‐yl)pyrazolo[1,5‐a][1,3,5]triazin‐4‐amine]				1900 ± 600	8700 ± 1500	400 ± 100	
CC(C)c1ccccc1CNc1nc(OC2CCN(C)CC2)nc2c(C(C)C)cnn12 [LDC3140]							IC50 (CDK7 [2]): < 5 nM
